Source: patent EP3222276B1, “PHARMACEUTICAL COMPOSITION FOR TREATING CANCER AND BIOMARKER FOR DRUG SCREENING” (National Defense Medical Center, priority 2014, dated 2016)

Key:
[1] = test system: ACHN cells; assay: ACHN xenograft in immunodeficient mice, tumor volume; format: in vivo; settings: 5 mg/kg sorafenib oral, 10 mg/kg GW5074 s.c., alone or combined; once a day for three weeks; n=8
Experimental: Six-week old immnunodeficient male mice (BALB/cAnN.Cg-Foxn1^nu/CrlNarl) with an average weight of 20 grams were xenografted with 1x10^7 ACHN cells to the right by […]. The mice were maintained in a specific pathogen-free (SPF) environment. The size of tumor was measured using a digital caliper twice a week and tumor volume was calculated by the equation of length^∗width^∗height^∗0.5. […] A total of four groups were included in the experiment: a control group which received only vehicle (DMSO), […], 25 mg/kg GW5074, […], respectively, with 8 mice in each group.

[2] = test system: ACHN cells; assay: Annexin V-FITC / propidium iodide flow cytometry for apoptosis or necrosis; format: cell-based, Human; settings: 5 µM sorafenib, 10 µM GW5074 or both; 24 hours; n=4
Experimental: (§1) The combination therapy of sorafenib and GW5074 induces cell necrosis through the dephosphorylation of the death-associated DAPK at serine 308 followed by dissociation from proto-oncogene c-Raf. Cells were cultured as described in example 1, washed with phosphate buffered saline (PBS), and stained with the annexin V-FITC and propidium iodide (PI) for 15 minutes. The presence of fluorescent Annexin V as well as propidium iodide (PI) was detected by flow cytometry so as to determine whether the cell death is caused by apoptosis or necrosis. The expression of c-Raf and DAPK as well as the phosphorylation level of DAPK were examined by Western blot and immunoprecipitation using antibodies. Anti-DAPK antibodies or non-immune rabbit IgG (IP: immunoglobulin) were included as negative controls, and cell survival was measured by SRB assay, as shown In example 1. In this experiment, ACHN cells were treated separately with DMSO (as a control group), 5 µM sorafenib, 10 µM GW5074, or the combination therapy of 5 µM sorafenib and 10 µM GW5074 for 24 hours.

[3] = test system: Luc-ACHN-LL cells; assay: Orthotopic metastasis model of renal carcinoma, IVIS photon signal and survival; format: in vivo, mice; settings: for death within, following injection of cancer cells: 10 mg/kg sorafenib alone or 25 mg/kg GW5074 alone
Experimental: To simulate clinical phenomenon, we established an orthotopic spontaneous animal model for studying metastasis of renal carcinoma. First, ACHN cells were transfected with the luciferase gene and the resultamt Luc-ACHN transfectants (stable transfectants which express the luciferase) with different expression levels were then selected for in vivo culture in mice by subcutaneous injection. Six-week old and shaved mice were subcutaneously injected with 1×10^7 Luc-ACHN cells In 0.1 ml PBS. Two months after the injection, the mice were sacrificed and their kidneys, livers, regional lymph nodes as well as other organs were collected for assessing tumor cells that were potentially metastatic, which was confirmed by hematoxylin-eosin (H&E) staining. Tumor cell lines that are highly metastatic were dissected in 1 ml PBS into small pieces aseptically and then cultured in MEM media containing 10% FBS (fetal bovine serum) and 1% penicillin/streptomycin following centrifugation. A few days later, monoclonal cell lines were first treated with the trypsin to dissociate the cells and then cultured in vitro. The cells obtained from liver tumor tissues were named ACHN-L. The metastatic potential of various monoclonal cell lines collected from different organs was further analyzed by xenografting these tumor cells to the left kidneys of mice. The xenografted mice were sacrificed and examined 8 weeks after the injection of tumor cells. The tumor growth observed in each organ was investigated through visual examination and histology procedures. The metastatic cells found in the liver were dissected into small pieces aseptically and cultured in vitro. The cells obtained from liver tumor tissues were named ACHN-L (subcutaneous injection) cells and the cells collected from the metastatic lesions after injection of ACHN-L cells to the left kidneys were called ACHN-LL cells. The same procedure using orthotopic xenograft of ACHN-LL cells and liver metastatic cells was repeated twice to select for highly metastatic tumors. The cancer cell line (Luc-ACHN-LL), which is highly metastatic and causes high mortality, was selected. Immunodeficient male mice was injected with 3×10^5 Luc-ACHN-LL cells in 50 µL PBS at the right renal capsule. The in vivo luciferase activity was examined every day for up to three weeks so as to assure that there were no leakage of cancer cells at the kidneys immediately after the injection and to monitor the metastasis of these cancer cells. Two to five minutes before utilizing the IVIS Xenogene system, 75 mg/kg D-Luciferin (Xenogen) in PBS was injected to the retro-orbital sinus of each mouse. […]

[4] = test system: ACHN cells; assay: SRB assay of cell survival / growth inhibition; format: cell-based, Human; settings: 5 µM sorafenib or 10 µM GW5074 alone, or both combined (GW5074 30 minutes before sorafenib); 24 hours
Experimental: Human renal carcinoma (ACHN) cells were cultured in Eagle MEM (Minimum Essential Medium) with 10% FBS (Fetal Bovine Serum) and 1% penicillin/streptomycin. Sulforhodamine B (SRB) is a negative […] with a sulfonic acid group and binds to basic amino acids of intracellular proteins in weak acidic conditions. The SRB […] was extracted from cells using weak alkaline solution and then subjected to absorbance measurement. The amount of intracellular proteins, which is an indicator for cell survival, can be calculated from the amount of SRB.

[5] = test system: pDAPK^S308; assay: Western blot of DAPK S308 phosphorylation in ACHN cells; format: cell-based, Human; settings: various concentrations, only when provided 30 minutes prior to the combination drugs
Experimental: as §1

Row | SMILES | inhibition effect on xenografted tumor growth (tumor volume) [1] | average cell necrosis rate [2] | death within, following injection of cancer cells [3] | growth inhibition of cells [4] | inhibition of dephosphorylation of pDAPK^S308 and growth of ACHN cells [5] | body weight ([3]; high-dose 60 mg/kg sorafenib) | death within ([3]; high-dose 60 mg/kg sorafenib)
1 | O=C1Nc2ccc(I)cc2C1=Cc1cc(Br)c(O)c(Br)c1 [GW5074, 3-(3,5-Dibromo-4-hydroxy-benzylidene)-5-iodo-1,3-dihydro-indol-2-one] | nearly no inhibition effect | 1.35% | ≤ 5 weeks | no growth inhibition | – | – | –
2 | C=C1[C@@H](O)[C@@H]2O[C@]3(CC[C@H](/C=C/[C@@H](C)[C@@H]4CC(C)=C[C@@]5(O[C@H](C[C@@](C)(O)C(=O)O)CC[C@H]5O)O4)O3)CC[C@H]2O[C@@H]1[C@@H](O)C[C@H](C)[C@H]1O[C@@]2(CCCCO2)CC[C@H]1C [Okadaic acid] | – | – | – | – | effective | – | –
3 | CNC(=O)c1cc(Oc2ccc(NC(=O)Nc3ccc(Cl)c(C(F)(F)F)c3)cc2)ccn1 [sorafenib] | nearly no inhibition effect | 0.77% | ≤ 8 weeks | no growth inhibition | – | loss of weight | ≤ 10 weeks
